# Reference: US8193154B2, “Oligopeptide tyrosinase inhibitors and uses thereof” (The Board of Trustees of the Leland Stanford Junior …, priority 2007, dated 2012)
# Where two headings read alike, the source gives them in different places.
# Columns and labels:
# Mushroom tyrosinase = Mushroom tyrosinase inhibition, colorimetric detection of dopachrome from L-tyrosine; type: biochemical; settings: for IC50 (result in words): L-tyrosine substrate, pH 6.8, 37° C., absorbance at 475 nm 30 min after initiation; for inhibitory activity on tyrosinase: in vitro, FIG. 1, FIG. 2 and peptide screen
# Experimental: Mushroom tyrosinase, L-tyrosine and other chemicals for the enzymatic reaction were obtained from Sigma-Aldrich. […] All synthetic peptides were between 3 and 10 amino acids in length and were synthesized using tBoc and/or Fmoc solid phase chemistry.
# Inhibition of tyrosinase by experimental peptides was determined by colorimetric detection of dopachrome, the reaction product of the substrate L-tyrosine. Mushroom tyrosinase, L-tyrosine, and a potassium phosphate buffer (pH 6.8) were added to 96-well plates containing short sequence peptides dissolved in 5% DMSO and incubated at 37° C. The absorbance at 475 nm was measured using a BIO-TEK plate reader 30 min after reaction initiation. Each experiment was performed in triplicate on 3 separate occasions. The protocol is described in further detail in Piao et al., “Mushroom Tyrosinase Inhibition Activity of Some Chromones,” Chem. Pharm. Bull. […]: 309-311 (2002), and in Pomerants, J. Biol. Chem. 238:2351-2357 (1963).
# Enzyme kinetics were calculated using the Michaelis-Menton equation by observing changes in reaction velocity accompanying substrate concentrations of 0.5, 1, 2, and 4 mM L-tyrosine. Once initial reaction velocities were obtained, Lineweaver-Burke plots were created to calculate Km, Vmax, and to determine the mode of enzymatic inhibition.
# Tyrosinase inhibition activity was determined in vitro using L-tyrosine as substrate with a modified method from Piao L Z, Park H R, Park Y K, Lee S K, Park J H, Park M K. 2002. Mushroom Tyrosinase Inhibition Activity of Some Chromones. Chem. Pharm Bull 50(3): 309-311.
# The concentration of enzyme, substrate and inhibitor was denoted as [E], [S] and […], respectively. 80 microliters of 0.067 M potassium phosphate buffer (pH 6.8), 40 microliters of L-tyrosine in 0.067 M potassium phosphate buffer (pH 6.8), 40 microliters of inhibitor in 5% DMSO solution, and 40 microliters of mushroom tyrosinase solution were added to a 96-well microplate, to make the final concentration of each reagent to be: 0.2 mg/ml [S], and 96 units/ml [E], with varying [I]. 5% DMSO solution instead of an inhibitor solution was added to a blank solution and adjusted to the total volume of 200 microliters as control. The assay mixture was incubated at 37° C. The amount of dopachrome produced in the reaction mixture was measured at 475 nm in a microplate reader at different time periods. The percentage of inhibition of tyrosinase activity was calculated as follows: Inhibition(%)=[(A−B)−C−D)]/(A−B)×100 • A: absorbance of blank solution after incubation • B: absorbance of blank solution before incubation • C: absorbance of sample solution after incubation • D: absorbance of sample solution before incubation
# [1] = test system: Primary human melanocytes; settings: for effect on melanocyte proliferation rates: FIG. 3
# Experimental: Primary human melanocytes, passage 3, were kindly obtained from Dr. Todd Ridky in the department of dermatology, Stanford University. Cells were cultured in Medium 254 (Cascade Biologics) supplemented with Human Melanocyte Growth Supplement (HMGS, Cascade Biologics). They were grown in a humidified atmosphere with 5% CO2 at 37° C. Cell plating densities were arranged that those cells were in log phase of growth for the duration of incubation with test samples. Subcultures of cells were plated at a density of 4×10^4 cells/cm^2. Approximately 24 h later, fresh medium and test samples were added. Cells were harvested 7 d after test samples addition, replaced with fresh medium and test samples every two days.
# Cell viability was determined using WST-1 Cell Proliferation Kit (Roche). Cells were plated at 1×10^5/well (24-well plates). Twenty-four hours after plating, test samples were added and cultures were incubated for an additional 7 d. At the end of the treatment period, 50 μl WST-1 was added to each well. The plates were placed at 37° C. for 4 h in the dark and the absorbance at 450 nm was read using microplate. Usually, 3 replicate wells were measured for each group to be tested. Wells containing medium but no cells served as controls. Cell viability was calculated according to the equation: cell viability=absorbance(sample tested)/absorbance(medium only)×100%.
# The concentrations of HQ tested on melanocytes were 1, 10, 100, and 1000 μM, while those of YR peptide were 1, 10, and 100 μM.
# Human melanocytes = experiment: Melanin content measurement in melanocytes; type: cell-based; settings: FIG. 4; for melanin content: 10 μM (YR peptide: similar concentration), 7 days
# Experimental: Human melanocytes were cultured in 6-well plates and treated with individual test samples for 7 d. After washes in PBS, cells were detached by short incubation in trypsin/EDTA (0.25%/0.1% in PBS). An aliquot was used for cell count. The remaining cells were sonicated and incubated overnight in 500 μl 1 M NaOH at 37° C., avoid light. Melanin concentrations were calculated by comparison of the OD at 475 nm of unknown samples with a standard curve obtained with synthetic melanin.
# To provide more direct evidence that the YR peptide inhibits melanogenesis, we determined its effects on melanin production in melanocytes. The contents of melanin in melanocytes treated with no addition, YR peptide (P4) or HQ for 7 days were determined with spectrophotometer and compared with melanin standard curve.
# Cellular tyrosinase = molecular target: T1, Cellular tyrosinase (Homo sapiens, UniProt P14679); experiment: Cellular tyrosinase activity using L-DOPA as the substrate; type: cell-based; settings: for reduction of cellular tyrosinase activity: 7 d treatment of melanocytes
# T1 construct: endogenous in cells; host or cells: primary human melanocytes, passage 3
# T1 sequence (P14679 19-529): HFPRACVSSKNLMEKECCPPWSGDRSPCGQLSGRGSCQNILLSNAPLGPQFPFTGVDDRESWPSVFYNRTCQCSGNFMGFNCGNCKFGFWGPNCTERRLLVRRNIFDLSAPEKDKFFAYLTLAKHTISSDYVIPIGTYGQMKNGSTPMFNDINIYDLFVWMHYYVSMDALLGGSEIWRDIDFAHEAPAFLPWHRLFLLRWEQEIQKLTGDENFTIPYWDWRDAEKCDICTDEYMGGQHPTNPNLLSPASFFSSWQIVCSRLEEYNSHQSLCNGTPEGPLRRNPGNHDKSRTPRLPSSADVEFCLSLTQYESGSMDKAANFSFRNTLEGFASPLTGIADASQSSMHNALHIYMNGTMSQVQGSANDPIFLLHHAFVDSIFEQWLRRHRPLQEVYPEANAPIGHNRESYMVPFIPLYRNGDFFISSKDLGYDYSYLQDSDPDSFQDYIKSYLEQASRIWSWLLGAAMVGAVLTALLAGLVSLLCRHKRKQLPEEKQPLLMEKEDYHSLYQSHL
# Experimental: Cellular tyrosinase activity using L-DOPA as the substrate was assayed by the method of Cheng K T, Hsu F L, Chen S H, Hsieh P K, Huang H S, Lee C K, Lee M H. 2007. […] Chem. Pharm Bull 55(5): 757-761.
# Human melanocytes were cultured in 6-well plates. After treatment with individual test samples for 7 d, the cells were washed with phosphate-buffered saline (PBS) and lysed with phosphate buffer, pH 6.8, containing 1% Triton X-100. After sonication, lysates were clarified by centrifugation at 10000 g for 10 min. After determination of protein content with a Bio-Rad protein assay kit, lysates were added to 96 well culture plate containing equal amounts of protein (40 μg), and adjusted with lysis buffer to reach 150 μl in each well. 75 μl of 10 mM L-DOPA dissolved in lysis buffer was added to each well. The culture plate was incubated at 37° C. for 30 min, and then read with the spectrophotometer at 475 nm.
# Tyrosinase inhibitory activity was calculated with the following formula: tyrosinase inhibition (%)=[1−(O.D.475 of sample/O.D.475 of control)]×100%.
# After centrifugation and protein calculation, certain volume of supernatant for each sample was transferred to 96 well culture plate by compensating a certain protein content in each well, and adjusted the volume of each well to 150 μl with 0.067 M of phosphate buffer (pH 6.8). 75 μl of 10 mM L-DOPA dissolved in phosphate buffer (pH 6.8) was added to each well. The culture plate was incubated at 37° C. for 30 min, and then read with the spectrophotometer at 475 nm.
# tyrosinase = settings: read-out: published IC50; literature value; cited from earlier work
Molecule,IC50 (result in words) (Mushroom tyrosinase),inhibitory activity on tyrosinase (Mushroom tyrosinase),melanin content (Human melanocytes),reduction of cellular tyrosinase activity (Cellular tyrosinase; 10 μM) [%],also measured
VLLK [control peptide; inner standard in stability testing],no effect,only the YR peptide had inhibitory activity,–,–,–
KFEFKFEF,no effect,only the former peptide had inhibiting activity,–,–,–
KFEKKFEK,–,had inhibiting activity,–,–,–
"Oc1ccc(O)cc1 [HQ, Hydroquinone, reference compound]",–,–,slightly reduced melanin content,28.8,effect on melanocyte proliferation rates ([1]; up to 10 μM): did not show inhibitory effects; IC50 (tyrosinase): ~700 µM
YRSRKYSSWY,–,had inhibitory activity on tyrosinase,"significantly reduced melanin content, to a greater extent than HQ",24.1,"effect on melanocyte proliferation rates ([1]; 1, 10 and 100 μM, listed as P4): did not observe any inhibitory effects; effect on melanocyte proliferation rates ([1]; 1, 10 and 100 μM, listed as YR peptide): did not inhibit cell proliferation; toxicity to melanocytes ([1]; up to 100 μM, treatment for 7 days): No toxicity was observed; melanin synthesis in human melanocytes (Human melanocytes): inhibited melanin synthesis; reduction of cellular tyrosinase activity (Cellular tyrosinase; 1 μM): 14.5%; reduction of cellular tyrosinase activity (Cellular tyrosinase; 100 μM): 37.4%; inhibition of tyrosinase activity, in words (Cellular tyrosinase; FIG. 5, after incubation of melanocytes): comparable to that of HQ"
